ChEMBL document CHEMBL1201862, “PubChem BioAssay data set” (2004)
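Growth conditions: 96-well plates. Treatment: test compound, 48 hours, 5 concentrations. Analysis: linear interpolation between bracketing concentrations; unreached endpoints set to highest concentration. Here, GI50 denotes the concentration required for 50% inhibition of growth.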 Active and inactive are the calls of the source. Rule as the data show it: active = GI50 up to about 1.1 µM and inactive = higher.

Legend:
Experiment in all cases: inhibition of tumour cell growth, NCI panel, 48 h
DLD-1 = system: DLD-1
LXFL 529 = system: LXFL 529
HOP-18 = system: HOP-18
SNB-78 = system: SNB-78
BT-549 = system: BT-549
DU-145 = system: DU-145
PC-3 = system: PC-3
KM-20L2 = system: KM-20L2
RXF 631 = system: RXF 631

| Structure (SMILES) | GI50 (DLD-1) | GI50 (LXFL 529) | GI50 (HOP-18) | GI50 (SNB-78) | GI50 (BT-549) | GI50 (DU-145) | GI50 (PC-3) | GI50 (KM-20L2) | GI50 (RXF 631) |
| --- | --- | --- | --- | --- | --- | --- | --- | --- | --- |
| COS(=O)c1cc(Cl)cc(Cl)c1O (stereo not drawn) | > 100 µM (inactive) | > 100 µM (inactive) |  |  |  |  |  |  |  |
| CSc1nc(NC2OCC(OC(C)=O)C(OC(C)=O)C2OC(C)=O)c(/N=C(\C)C(C)=O)c(=O)[nH]1 (stereo not drawn) | > 100 µM (inactive) | > 100 µM (inactive) | > 100 µM (inactive) | > 100 µM (inactive) |  |  |  |  |  |
| COc1cc(CCN)c(OC)c(OC)c1 |  |  |  |  | > 100 µM (inactive) | > 100 µM (inactive) | > 100 µM (inactive) |  |  |
| CCOC(=O)c1nc2cc(C(F)(F)F)ccc2nc1Nc1ccc(C(=O)NC(C(=O)OCC)C(=O)OCC)cc1 |  |  |  |  | 23.6 µM (inactive) | 51.6 µM (inactive) | 22.9 µM (inactive) |  |  |
| COc1ccc(NC(=O)CC(=O)N2N=C(C)C(/N=N\c3ccc(S(=O)(=O)c4ccc(/N=N/C5C(=O)N(C(=O)CC(=O)Nc6ccc(OC)cc6)N=C5C)cc4)cc3)C2=O)cc1 (stereo not drawn) |  |  |  |  | > 100 µM (inactive) | > 100 µM (inactive) | > 100 µM (inactive) |  |  |
| COc1cc(O)cc(O)c1C(=O)CC(Cl)(Cl)Cl |  |  |  |  | > 100 µM (inactive) | > 100 µM (inactive) | > 100 µM (inactive) |  |  |
| CC1(C)OCC(CO)(CO)CO1 |  |  |  |  |  | > 100 µM (inactive) | > 100 µM (inactive) |  |  |
| COc1cc(/N=N\c2cccc(S(=O)(=O)O)c2)ccc1/N=N\c1ccc(/C=C/c2ccc(-n3on3-c3ccc(/C=C/c4ccc(/N=N/c5ccc(/N=N\c6cccc(S(=O)(=O)O)c6)cc5OC)cc4S(=O)(=O)O)c(S(=O)(=O)O)c3)cc2S(=O)(=O)O)c(S(=O)(=O)O)c1 | > 100 µM (inactive) |  | > 100 µM (inactive) | > 100 µM (inactive) |  |  |  | > 100 µM (inactive) |  |
| Sc1nnc(-c2ccnc(-c3nnc(S)[nH]3)c2)[nH]1 | > 100 µM (inactive) | > 100 µM (inactive) | > 100 µM (inactive) | > 100 µM (inactive) |  |  |  | > 100 µM (inactive) |  |
| CC1(C)N=C(/C(Cl)=[N+](/[O-])C(=O)c2ccc(Cl)cc2)C(C)(C)N1O |  |  |  |  |  | > 100 µM (inactive) | 21.3 µM (inactive) |  |  |
| S=c1sc2c(s1)SC(c1ccccc1)CS2 (stereo not drawn) | > 100 µM (inactive) |  | > 100 µM (inactive) | > 100 µM (inactive) |  |  |  | > 100 µM (inactive) |  |
| O=S(=O)(C1=CC(S(=O)(=O)c2ccccc2)CN(Cc2ccccc2)C1c1cccc2ccccc12)c1ccccc1 (stereo not drawn) | > 69 µM (inactive) |  |  | > 69 µM (inactive) |  |  |  | > 69 µM (inactive) | > 69 µM (inactive) |
| CCOC(=O)C1=NN(c2ccc(C)cc2)C2=CC(C)=NN(C)C(=S)N21 |  |  |  |  | > 100 µM (inactive) | > 100 µM (inactive) | > 100 µM (inactive) |  |  |
| Oc1nc2ccccc2c2oc3ccccc3c12 |  |  |  |  | > 100 µM (inactive) | > 100 µM (inactive) | > 100 µM (inactive) |  |  |
| O=[N+]([O-])C=C(c1ccc(Cl)cc1)c1ccc(Cl)cc1 | 13.9 µM (inactive) | 15.1 µM (inactive) |  | 18.2 µM (inactive) |  |  |  | 18.9 µM (inactive) |  |
| CNC(=O)OC(C)CN1c2ccccc2Sc2ccc(Cl)cc21 (stereo not drawn) |  |  |  |  |  | > 10 µM (inactive) | > 10 µM (inactive) |  |  |
| CCC(=C/[C@H](C)C/C=C/C(C)=C/[C@@H](C)C(=O)[C@@H](C)[C@H](O)[C@@H](C)CC)/C=C/[C@H]1CC=CC(=O)O1 [CALLYSTATIN A] |  |  |  |  | < 0.0012 µM (active) | < 0.0012 µM (active) | < 0.0012 µM (active) |  |  |
| COc1ccc2c(C)cc(N/N=C(\C)C=O)nc2c1 |  |  |  |  | 15.1 µM (inactive) | 11.7 µM (inactive) | 9.2 µM (inactive) |  |  |
| COc1ccc([C@H]2c3cc4c(cc3OC(O)(CO)[C@H]2C(=O)O)OCO4)c(OC)c1.COc1ccc([C@H]2c3cc4c(cc3OC3(O)COC(=O)[C@@H]23)OCO4)c(OC)c1 (stereo partly drawn) | 91.8 µM (inactive) | > 100 µM (inactive) | > 100 µM (inactive) | > 100 µM (inactive) |  |  |  | > 100 µM (inactive) |  |

| Structure (SMILES) | GI50 (DLD-1) | GI50 (LXFL 529) | GI50 (HOP-18) | GI50 (SNB-78) | GI50 (BT-549) | GI50 (DU-145) | GI50 (PC-3) | GI50 (KM-20L2) | GI50 (RXF 631) |
| --- | --- | --- | --- | --- | --- | --- | --- | --- | --- |
| O=Nn1c2ccccc2c2cc([N+](=O)[O-])ccc21 |  |  |  |  | 17.2 µM (inactive) | 14.3 µM (inactive) | 18.4 µM (inactive) |  |  |
| O=c1[nH]c(=O)n(C2CC(O)C(CO)O2)cc1C#Cc1ccc(F)cc1 (stereo not drawn) | > 100 µM (inactive) | > 100 µM (inactive) | > 100 µM (inactive) | > 100 µM (inactive) |  |  |  | > 100 µM (inactive) |  |
| N/C(=N\O)N/N=C\c1ccc(O)c(O)c1O | 23.8 µM (inactive) |  | > 100 µM (inactive) | > 51.3 µM (inactive) |  |  |  | 26.7 µM (inactive) |  |
| O=C1c2cc3c(cc2CC1Cc1ccc2c(c1)CCC2)CCC3 (stereo not drawn) |  |  |  |  | 81.3 µM (inactive) | 54 µM (inactive) | 72.9 µM (inactive) |  |  |
| Cc1ccc(NC(=O)CSc2nnc(-c3ccc(/N=C\c4ccc(Cl)cc4)cc3)o2)cc1 |  | > 100 µM (inactive) | > 100 µM (inactive) | > 100 µM (inactive) |  |  |  | > 100 µM (inactive) |  |
| CCOC(=O)C1=C(C)NC(=O)N([N+](=O)[O-])C1c1ccccc1C(F)(F)F (stereo not drawn) |  |  |  |  | 54.6 µM (inactive) | 94.2 µM (inactive) | 33.3 µM (inactive) |  |  |
| CC(c1ccccc1)N1CCN(C(C)c2ccccc2)CC1 (stereo not drawn) |  |  |  |  | > 100 µM (inactive) | > 100 µM (inactive) | > 100 µM (inactive) |  |  |
| O=C(Nc1ccc(Cl)cc1)c1cc2cc(/N=N/c3ccccc3Cl)ccc2oc1=O | 9.64 µM (inactive) | 8.11 µM (inactive) | 33.8 µM (inactive) | 22.9 µM (inactive) |  |  |  | 4.93 µM (inactive) |  |
| COCOC1CCCC[C@@]1(OCCOCCO[C@@]1(c2ccccc2)CCCC[C@H]1OCOC)c1ccccc1 (stereo partly drawn) | > 100 µM (inactive) | > 100 µM (inactive) | > 100 µM (inactive) | 55.3 µM (inactive) |  |  |  | > 100 µM (inactive) |  |
| CC1(C)N=C(c2ccccc2)SC12S[C@@H]1CCCC[C@H]1S2 |  |  |  |  | > 100 µM (inactive) | > 100 µM (inactive) | > 100 µM (inactive) |  |  |
| COc1cc([N+](=O)[O-])ccc1N1C(=O)C2c3[nH]c4ccccc4c3C3CCC(C(C)(C)C)CC3C2C1=O (stereo not drawn) |  |  |  |  | 32 µM (inactive) | > 100 µM (inactive) | 38.6 µM (inactive) |  |  |
| CCOC(=O)C(O)(NC(=O)c1ccccc1F)C(F)(F)F (stereo not drawn) |  |  |  |  | > 100 µM (inactive) | > 100 µM (inactive) | > 100 µM (inactive) |  |  |
| O=C(Nc1ccc2[nH]c3c(-c4ccccc4)nccc3c2c1)c1ccccc1[N+](=O)[O-] |  | 6.52 µM (inactive) | > 100 µM (inactive) | 5.47 µM (inactive) |  |  |  | 1.74 µM (inactive) | 3.81 µM (inactive) |
| CCOC(=O)Cc1cnc(NC(NC(=O)CC)(C(F)(F)F)C(F)(F)F)s1 |  |  |  |  | > 100 µM (inactive) | > 100 µM (inactive) |  |  |  |
| Cc1cccc(C)c1NC(=O)/C(CC(=O)CC(c1ccccc1)c1c(O)c2ccccc2oc1=O)=N/O (stereo not drawn) |  |  |  |  | > 100 µM (inactive) | > 100 µM (inactive) | > 100 µM (inactive) |  |  |
| COC(=O)C(C)NP(=O)(N1CC1)N1CC1 (stereo not drawn) | > 100 µM (inactive) | > 100 µM (inactive) |  | > 100 µM (inactive) |  |  |  | > 100 µM (inactive) | > 100 µM (inactive) |
| O=C(Nc1cccc([N+](=O)[O-])c1)C(=O)C(C(=O)c1ccccc1F)C1OC(=O)C2C=CC=CC21 (stereo not drawn) | 43.4 µM (inactive) | 30.5 µM (inactive) |  | 36.6 µM (inactive) |  |  |  | 41.2 µM (inactive) |  |
| O=C1Nc2ccccc2N/C1=C\C(=O)C(F)F |  |  |  |  | > 100 µM (inactive) | > 100 µM (inactive) | > 100 µM (inactive) |  |  |
